This experiment deals with T1, human MCH-1R (Homo sapiens, UniProt Q99705).
T1 construct: expressed in transfected cells; host or cells: CHO-K1 (American Type Culture Collection), plasmid vector pEF/myc/cyto
T1 sequence (Q99705 whole entry): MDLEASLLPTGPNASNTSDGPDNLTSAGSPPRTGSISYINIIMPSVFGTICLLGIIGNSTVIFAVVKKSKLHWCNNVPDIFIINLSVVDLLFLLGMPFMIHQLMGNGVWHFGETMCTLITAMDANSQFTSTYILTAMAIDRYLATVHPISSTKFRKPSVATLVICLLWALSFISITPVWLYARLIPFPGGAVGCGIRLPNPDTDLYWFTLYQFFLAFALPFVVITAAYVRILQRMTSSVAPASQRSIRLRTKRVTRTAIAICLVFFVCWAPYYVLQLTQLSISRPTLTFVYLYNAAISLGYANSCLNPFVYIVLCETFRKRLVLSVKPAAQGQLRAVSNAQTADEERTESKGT
Put plainly: MCH binding inhibition test. To be noted: inhibition of specific [125I]MCH (50 pM) binding; membrane specimen from MCH-1R-expressing CHO-K1 cells; 25° C., 1 hour. An excerpt: A cDNA sequence encoding human MCH-1R [FEBS Letters, Vol. 398, 253 (1996); Biochimica et Biophisica Acta, Vol. 1401, 216 (1998)] was cloned into a plasmid vector pEF/myc/cyto (manufactured by In Vitro Gene). The expression plasmid thus obtained was transfected into host cells CHO-K1 (American Type Culture Collection) by using lipofectAMINE PLUS reagent (manufactured by Life Technologies) to thereby give MCH-1R-expressing cells.
A membrane specimen prepared from the MCH-1R-expressing cells was incubated together with a test compound and 50 pM of [^125I]MCH (manufactured by NEN) in an assay buffer (a 50 mM Tris buffer (pH7.4) containing 10 mM of magnesium chloride, 2 mM of ethylenediaminetetracetic acid, 0.01% of bacitracin and 0.2% of bovine serum albumin) at 25° C. for 1 hour, and then filtered through a glass filter GF/C (manufactured by Whatman). After washing the glass filter with a 50 mM Tris buffer (pH7.4) containing 10 mM of magnesium chloride, 2 mM of ethylenediaminetetracetic acid and 0.04% of Tween-20, the radioactivity on the glass filter was determined. Nonspecific binding was measured in the presence of 1 μM human MCH and the 50% inhibitory concentration (IC50) of the test compound to the specific binding to [^125I]MCH was determined. Table 1 indicates the results.
As for `CCO/N=C(\c1ccc(F)c(F)c1)c1ccc(CN2CCC(c3ccn4ccnc4c3)CC2)cn1` [Example 3-26, (E)-(3,4-Difluorophenyl){5-[(4-imidazo[1,2-a]pyridin-7-ylpiperidin-1-yl)methyl]pyridin-2-yl)methanone O-ethyloxime], the IC50 (in general, the concentration that gives 50% inhibition) amounted to 0.27 nM. Consider `CCO/N=C(\c1ccc(F)c(F)c1)c1ccc(CN2CCC(c3cn(C)c4cnccc34)CC2)cn1` [Example 3-33, (E)-(3,4-Difluorophenyl)(5-{[4-(1-methyl-1H-pyrrolo[2,3-c]pyridin-3-yl)piperidin-1-yl]methyl}pyridin-2-yl)methanone O-ethyloxime], for which the IC50 came out at 0.11 nM. `CC(C)(O)CO/N=C(\c1ccc(F)c(F)c1)c1ccc(CN2CCC(c3cnn4ncccc34)CC2)cn1` [Example 3-51, (E)-(3,4-Difluorophenyl){5-[(4-pyrazolo[1,5-b]pyridazin-3-ylpiperidin-1-yl)methyl]pyridin-2-yl}methanone O-(2-hydroxy-2-methylpropyl)oxime] had an IC50 of 11.2 nM. Consider `CS(=O)(=O)CO/N=C(\c1ccc(F)c(F)c1)c1ccc(CN2CCC(c3ccc(F)nc3)CC2)cn1` [Example 3-53, (E)-(3,4-Difluorophenyl)(5-{[4-(6-fluoropyridin-3-yl)piperidin-1-yl]methyl}pyridin-2-yl)methanone O-[(methylsulfonyl)methyl]oxime], for which the IC50 turned out to be 6.7 nM. In the case of `Fc1ccc(C2CCN(Cc3cnc(/C(=N/OC4CC4)c4ccc(F)c(F)c4)nc3)CC2)cn1` [Example 4-1, (E)-(3,4-difluorophenyl)(5-{[4-(6-fluoropyridin-3-yl)piperidin-1-yl]methyl}pyrimidin-2-yl)methanone-O-cyclopropyloxime], the IC50 was found to be 9.7 nM.
